Test results taken from PMC8698377, “In Vitro Hepatic Assessment of Cineole and Its Derivatives in Common Brushtail Possums (Trichosurus vulpecula) and Rodents” (Biology, 2021).

Key:
[1] = system: CYP3A; test: CYP3A catalytic activity (erythromycin-N-demethylation), mouse hepatic microsomes; type: in vitro ADME; details: for activity at 30 min, 12.5 µM / activity at 30 min, 25 µM: liver microsomes, pH 7.4, probe erythromycin, read-out: CYP3A catalytic activity, % of Control
Experimental: (§1) Microsomal preparation was as previously outlined. Individual livers were placed in beakers containing 1.15% KCl. All the procedures were carried out at 0–4 °C. The liver samples were minced and homogenised in buffer A (0.1 M Tris, 0.1 M potassium chloride, 1 mM EDTA, and 20 μM butylated hydroxytoluene, at pH = 7.4) using the Teflon-glass homogeniser (5–6 vertical passes). The samples were centrifuged for 20 min at 10,000× g. The supernatant was then transferred into another set of centrifuge tubes and spun for 60 min at 100,000× g. The pellet was resuspended in Buffer B (0.1 M potassium pyrophosphate, 1 mM EDTA, and 20 μM butylated hydroxytoluene, at pH = 7.4), homogenised and recentrifuged for 60 min at 100,000× g. Finally, the pellet was homogenised in 1–2 mL of Buffer C (10 mM Tris-HCl, 1 mM EDTA, and 4% glycerol (v/v)) and stored at […] until used. The protein concentration of the microsomes was determined using the Bicinchoninic acid (BCA) method.
(§2) CYP3A catalytic activity was determined using the erythromycin-N-demethylation activity assay as described previously. The reaction mixture (final volume of 1 mL and final protein concentration of 1 mg) contained 500 µL of microsomes in 0.1 M phosphate buffer (pH = 7.4), 400 µL of erythromycin buffer (0.45 mM), and 50 µL of the test compound was pre-warmed at 37 °C for 2 min. The reaction was initiated with 50 µL of 2.5 mM […] and incubated at 37 °C for 30 min (optimised incubation time). The reaction was stopped with the addition of 330 µL of 15% zinc sulphate. Tubes were vortexed and left for 5 min (at room temperature) and then 330 µL of saturated barium hydroxide was added. Tubes were further vortexed and left for 5 min (at room temperature). Tubes were then centrifuged at 1800 g for 10 min. To 830 µL of the supernatant, 330 µL of Nash reagent (30% (w/v) ammonium acetate, 0.4% (v/v) acetyl acetone) was added and further incubated at 60 °C for 30 min. The blank tube contained 330 µL of Nash reagent and 830 µL of Milli-Q-water. The tubes were centrifuged again at 1800× g for 10 min and the absorbance was read at 415 nm. Results presented are the mean ± SEM of 3 independent experiments conducted in duplicate.

[2] = system: CYP3A; test: CYP3A catalytic activity (erythromycin-N-demethylation), rat hepatic microsomes; type: in vitro ADME; details: for activity at 30 min, 12.5 µM / activity at 30 min, 25 µM: liver microsomes, pH 7.4, probe erythromycin, read-out: CYP3A catalytic activity, % of Control
Experimental: as §1, §2

[3] = system: CYP3A; test: CYP3A catalytic activity (erythromycin-N-demethylation), possum hepatic microsomes; type: in vitro ADME, possum (Trichosurus vulpecula); details: for activity at 30 min, 12.5 µM / activity at 30 min, 25 µM: possum (Trichosurus vulpecula), liver microsomes, pH 7.4, probe erythromycin, read-out: CYP3A catalytic activity, % of Control
Experimental: as §1, §2

[4] = system: UGT; test: p-nitrophenol glucuronidation, mouse hepatic microsomes; type: in vitro ADME
Experimental: as §1
(§3) The rate of p-nitrophenol glucuronidation was determined as previously reported. In short, the incubation mixture (500 µL in total) contained; 100 µL of 1 mg/mL microsomes, 50 µL of 1 M Tris-HCl (pH = 7.4), 20 µL of 0.25% (v/v) Triton-X 100, 50 µL of 50 mM MgCl2, 130 µL of double distilled water, 50 µL of 5 mM p-nitrophenol, 50 µL of the test compound, and 50 µL of uridine 5′-diphosphoglucuronic acid trisodium salt (UDPGA). The blank tubes had all components except UDPGA and microsomes; instead, 150 µL of 0.1 M phosphate buffer was added to equal the volume as the reaction mixture. The reaction mixture and the blank were incubated at 37 °C for 2 min. Then, 50 µL of 30 mM UDPGA was added to initiate the reaction which proceeded at 37 °C for 30 min (optimised incubation time). The reaction was stopped using 1 mL of 5% trichloroacetic acid (TCA). The tubes were centrifuged at 1800 g for 10 min and then 1 mL of supernatant was added to 250 µL of 2 M sodium hydroxide (NaOH). The absorbance was read at 405 nm. The sample reading was subtracted from the blank absorbance and divided by the extinction coefficient of p-nitrophenol ([…]) and the light path of the spectrophotometer (1 cm). The glucuronidation activities are expressed in µmol/mg/min and are the mean ± SEM of 3 independent experiments conducted in duplicate.

[5] = system: UGT; test: p-nitrophenol glucuronidation, rat hepatic microsomes; type: in vitro ADME
Experimental: as §1, §3

[6] = system: UGT; test: p-nitrophenol glucuronidation, possum hepatic microsomes; type: in vitro ADME, possum (Trichosurus vulpecula)
Experimental: as §1, §3

SMILES	CYP3A catalytic activity ([1]; 12.5 µM) [nmol/mg/min]	CYP3A catalytic activity ([1]; 25 µM) [nmol/mg/min]	activity at 30 min, 12.5 µM ([1]; 12.5 µM) [%]	activity at 30 min, 25 µM ([1]; 25 µM) [%]	CYP3A catalytic activity ([2]; 12.5 µM) [nmol/mg/min]	CYP3A catalytic activity ([2]; 25 µM) [nmol/mg/min]	CYP3A catalytic activity ([3]; 12.5 µM) [nmol/mg/min]	CYP3A catalytic activity ([3]; 25 µM) [nmol/mg/min]	p-nitrophenol glucuronidation activity ([4]; 12.5 µM) [µmol/mg/min]	p-nitrophenol glucuronidation, % of Control ([4]; 12.5 µM) [%]	p-nitrophenol glucuronidation activity ([4]; 25 µM) [µmol/mg/min]	p-nitrophenol glucuronidation, % of Control ([4]; 25 µM) [%]	p-nitrophenol glucuronidation activity ([5]; 12.5 µM) [µmol/mg/min]	p-nitrophenol glucuronidation, % of Control ([5]; 12.5 µM) [%]	p-nitrophenol glucuronidation activity ([5]; 25 µM) [µmol/mg/min]	p-nitrophenol glucuronidation, % of Control ([5]; 25 µM) [%]	p-nitrophenol glucuronidation activity ([6]; 12.5 µM) [µmol/mg/min]	p-nitrophenol glucuronidation, % of Control ([6]; 12.5 µM) [%]	p-nitrophenol glucuronidation activity ([6]; 25 µM) [µmol/mg/min]	p-nitrophenol glucuronidation, % of Control ([6]; 25 µM) [%]	also measured
CC1(O)CCC(C(C)(C)O)CC1 (stereo in doubt) [Trans-terpin, trans-terpin]	0.71 ± 0.03	0.70 ± 0.03	101 ± 2.7	99.64 ± 0.93	0.59 ± 0.04	0.60 ± 0.06	0.41 ± 0.02	0.40 ± 0.03	2.44 ± 0.06	101.67 ± 0.74	2.33 ± 0.07	97.15 ± 1.80	2.87 ± 0.22	104.14 ± 9.44	2.50 ± 0.10	90.51 ± 3.63	3.90 ± 0.34	99.53 ± 0.84	3.91 ± 0.34	99.77 ± 0.60	activity at 30 min, 12.5 µM ([2]; 12.5 µM): 98.3 ± 3.1%; activity at 30 min, 25 µM ([2]; 25 µM): 99.3 ± 1%; activity at 30 min, 12.5 µM ([3]; 12.5 µM): 106 ± 1.42%; activity at 30 min, 25 µM ([3]; 25 µM): 103 ± 6.11%
CC1(C)CCCCC1 [1,1-dimethylcyclohexane]	0.73 ± 0.03	0.79 ± 0.04	98.93 ± 0.94	107 ± 1.13	0.61 ± 0.07	0.61 ± 0.10	0.38 ± 0.01	0.40 ± 0.02	2.48 ± 0.13	105.97 ± 2.23	2.19 ± 0.09	93.67 ± 1.67	2.59 ± 0.08	100.53 ± 2.39	2.58 ± 0.05	100.29 ± 3.55	4.08 ± 0.18	100.68 ± 0.60	4.03 ± 0.23	99.32 ± 0.90	activity at 30 min, 12.5 µM ([2]; 12.5 µM): 103 ± 7.68%; activity at 30 min, 25 µM ([2]; 25 µM): 100 ± 1.66%; activity at 30 min, 12.5 µM ([3]; 12.5 µM): 98 ± 1.28%; activity at 30 min, 25 µM ([3]; 25 µM): 101.8 ± 0.61%
CCCCCC12CCC(C(=O)O)(CC1)CC2 [4-pentylbicyclo[2.2.2]octane-1-carboxylic acid]	0.61 ± 0.04	0.67 ± 0.01	96.3 ± 1.91	106 ± 2.97	0.56 ± 0.05	0.55 ± 0.06	0.40 ± 0.05	0.40 ± 0.02	2.41 ± 0.06	98.73 ± 3.51	2.21 ± 0.14	90.15 ± 2.18	2.88 ± 0.13	103.95 ± 3.65	2.82 ± 0.07	101.89 ± 3.31	3.80 ± 0.27	98.44 ± 1.05	3.96 ± 0.17	102.71 ± 1.91	activity at 30 min, 12.5 µM ([2]; 12.5 µM): 105 ± 3.3%; activity at 30 min, 25 µM ([2]; 25 µM): 102 ± 2.42%; activity at 30 min, 12.5 µM ([3]; 12.5 µM): 109 ± 3.58%; activity at 30 min, 25 µM ([3]; 25 µM): 111 ± 7.26%
O=C(O)C1C2C=CC(C2)C1C(=O)O (stereo not drawn) [5-norbornen-2-endo-3-exo-dicarboxylic acid]	0.73 ± 0.04	0.77 ± 0.03	–	–	0.65 ± 0.10	0.64 ± 0.09	0.39 ± 0.03	0.38 ± 0.02	2.23 ± 0.09	107.16 ± 4.97	2.23 ± 0.10	107.42 ± 3.63	2.85 ± 0.16	96.42 ± 1.23	2.92 ± 0.19	98.52 ± 2.14	3.90 ± 0.23	100.53 ± 2.09	3.91 ± 0.20	100.86 ± 1.90	CYP3A catalytic activity, % of Control ([1]; 12.5 µM): 96.48 ± 0.72%; CYP3A catalytic activity, % of Control ([1]; 25 µM): 101.88 ± 0.75%; CYP3A catalytic activity, % of Control ([2]; 12.5 µM): 107.52 ± 3.84%; CYP3A catalytic activity, % of Control ([2]; 25 µM): 105.30 ± 2.08%; CYP3A catalytic activity, % of Control ([3]; 12.5 µM): 98.90 ± 0.73%; CYP3A catalytic activity, % of Control ([3]; 25 µM): 95.23 ± 3.85%
O=C(O)C1CC2C=CC1O2 (stereo not shown) [7-oxabicyclo[2.2.1]-hept-5-ene-2-carboxylic acid]	0.67 ± 0.01	0.66 ± 0.03	103 ± 2.77	103 ± 3.52	0.48 ± 0.06	0.51 ± 0.04	0.41 ± 0.02	0.40 ± 0.02	3.46 ± 0.04	101.00 ± 0.64	3.26 ± 0.09	95.53 ± 4.50	2.87 ± 0.07	102.50 ± 2.98	2.75 ± 0.06	98.20 ± 1.42	4.02 ± 0.09	99.13 ± 1.29	3.99 ± 0.09	98.49 ± 0.83	activity at 30 min, 12.5 µM ([2]; 12.5 µM): 107 ± 5.87%; activity at 30 min, 25 µM ([2]; 25 µM): 114 ± 3.17%; activity at 30 min, 12.5 µM ([3]; 12.5 µM): 106 ± 7.47%; activity at 30 min, 25 µM ([3]; 25 µM): 103 ± 1.09%
OC(Cn1cncn1)(Cn1cncn1)c1ccc(F)cc1F [fluconazole, reference compound]	–	–	–	–	–	–	–	–	–	–	–	–	–	–	–	–	–	–	–	–	decrease of hepatic p-nitrophenol glucuronidation ([4]; 2.5 mM, positive control): 20 percent control
